Values of other authors, collected in US20150283148A1, “ARRANGEMENT OF SPECIFIC ANTIDOTES WITH ALLOPATHIC MEDICINAL PREPARATIONS IN GENERAL SECONDARY PACKAGE” (priority 2014, published 2015).

Conditions: predicted by algorithm

## NS(=O)(=O)Cc1noc2ccccc12 [Zonisamide]
  predicted latent side effect: suicidal thoughts
